Results: article PMC6348443 (Journal of Medicinal Chemistry, 2018)
Where a name gives a salt, the structure may show the parent alone. Read-outs that look alike come from different tables or passages of the source.

Key:
[1] = target: T1, MOR (Homo sapiens, UniProt P35372); assay: [35S]GTPγS binding assay, CHO-hMOR membranes; type: biochemical; conditions: for Emax: read-out: MOR % stim.
T1 construct: host or cells: CHO (CHO-hMOR)
Description: (§1) Efficacies are presented as percentage stimulation relative to the standard full agonists, [D-Ala^2,N-Me-Phe4,Gly-ol^5]enkephalin (DAMGO for MOR),[53] [D-Pen^2,D-Pen^5]enkephalin (DPDPE for DOR)[54] and N-methyl-2-phenyl-N-[(5R,7S,8S)-7-(pyrrolidin-1-yl)-1-oxaspiro[4.5]dec-8-yl]acetamide (U69,593 for KOR).[55]
(§2) Membranes from CHO cells expressing human opioid receptors were prepared in 50 mM Tris-HCl buffer (pH 7.7) according to a previously described procedure.[64] Cells expressing human opioid receptors grown at confluence were removed from the culture plates by scraping, homogenized in 50 mM Tris buffer (pH 7.7), using a Polytron homogenizer, then centrifuged once and washed by an additional centrifugation at 27 000g for 15 min, at 4 °C. The final pellet was resuspended in Tris buffer and stored at −80 °C until use. Protein content of brain and cell membrane preparation homogenates was determined by the method of Bradford using bovine serum albumin as the standard.[65]
(§3) Binding of [^35S]GTPγS to membranes from CHO cells stably expressing the human opioid receptors was conducted according to the published procedures.[49],[64] Cell membranes (5–10 μg) in 20 mM HEPES, 10 mM MgCl2, and 100 mM NaCl (pH 7.4) were incubated with 0.05 nM [^35S]GTPγS, 10 μM GDP, and various concentrations of test compound in a final volume of 1 mL, for 60 min at 25 °C. Nonspecific binding was determined using 10 μM GTPγS, and the basal binding was determined in the absence of test ligand. Samples are filtered over glass Whatman glass GF/B fiber filters and counted as described for binding assays. All experiments were performed in duplicate and repeated at least three times.
(§4) Data were analyzed and graphically processed using the GraphPad Prism 5.0 Software (GraphPad Prism Software Inc., San Diego, CA). For in vitro assays, inhibition constant (Ki in nM), potency (EC50 in nM), and efficacy (% stimulation) values were determined from concentration–response curves by nonlinear regression analysis. The Ki values were determined by the method of Cheng and Prusoff.[66] In the [^35S]GTPγS binding assays, efficacy was determined relative to the reference full opioid agonists, DAMGO (MOR), DPDPE (DOR), and U69,593 (KOR). In vitro data are presented as mean ± SEM of three to four independent experiments each performed in duplicate. […] Each experimental group included six to seven mice. Data were statistically evaluated using one-way ANOVA with Tukey’s post hoc test for multiple comparisons with significance set at P < 0.05.

[2] = target: T2, DOR (Homo sapiens, UniProt P41143); assay: [35S]GTPγS binding assay, CHO-hDOR membranes; type: biochemical; conditions: for EC50: [35S]GTPγS, CHO human DOR membranes; for Emax: relative to reference full agonist DPDPE, read-out: DOR % stim.
T2 construct: host or cells: CHO (CHO-hDOR)
Description: as §1, §2, §3, §4

[3] = target: T3, KOR (Homo sapiens, UniProt P41145); assay: [35S]GTPγS binding assay, CHO-hKOR membranes; type: biochemical; conditions: for EC50: [35S]GTPγS, CHO human KOR membranes, read-out: KOR EC50; for Emax: relative to reference full agonist U69,593, read-out: KOR % stim.; for functional profile at KOR (full/partial agonist): partial agonist <85% of the response to U69,593
T3 construct: host or cells: CHO (CHO-hKOR)
Description: as §1, §2, §3, §4

[4] = target: T2, DOR; assay: competition radioligand binding, CHO cell membranes expressing human DOR, [3H]diprenorphine
Description: as §2
(§5) Rat brain membranes were incubated with either [^3H]DAMGO (1 nM, 45 min, 35 °C) or [^3H][Ile^5,6]deltorphin II (0.5 nM, 45 min, 35 °C) for labeling MOR or DOR receptors, respectively. Guinea-pig brain membranes were incubated with [^3H]U69,593 (1 nM, 30 min, 30 °C) for labeling KOR. Binding assays with CHO cell membranes were conducted at 25 °C for 60 min using [^3H]DAMGO (1 nM) or [^3H]diprenorphine (0.2 nM) for labeling MOR or DOR, respectively. Nonspecific binding was determined using 10 μM naloxone (rodent brain) or 1–10 μM of the unlabeled counterpart of each radioligand (CHO cells). Reactions were terminated by rapid filtration through Whatman glass fiber GF/C filters. Filters were washed three times with 5 mL of ice-cold 50 mM Tris-HCl buffer (pH 7.4) using a Brandel M24R cell harvester (Gaithersburg, MD). Radioactivity retained on the filters was counted by liquid scintillation counting using a Beckman Coulter LS6500 (Beckman Coulter Inc., Fullerton, CA). All binding experiments were performed in duplicate and repeated at least three times.
(§6) aDetermined in competition radioligand binding assays using CHO cell membranes expressing
(§7) human MOR and DOR. Values represent the mean ± SEM of three independent experiments each

[5] = target: T4, KOR (Cavia porcellus, UniProt P41144); assay: competition radioligand binding, guinea-pig brain membranes, [3H]U69,593; conditions: guinea-pig brain membranes; read-out: opioid receptor binding Ki KOR
T4 construct: Membranes were prepared from Sprague-Dawley rat brains or guinea-pig brains according to the described procedures; tissue Labortierkunde und Laborgenetik, Medizinische Universität Wien; host or cells: guinea-pig brain without cerebella
Description: (§8) Competition binding assays using rat brain (MOR and DOR) and guinea-pig brain (KOR) membranes (Table 1) were performed according to published procedures.[44],[49] […] In addition, we have assessed binding at the human opioid receptors stably transfected in Chinese hamster ovary (CHO) cells (Table S1).
(§9) Membranes were prepared from Sprague-Dawley rat brains or guinea-pig brains according to the described procedures.[44],[45] Brains without cerebella were homogenized on ice in 5 vol/wt of ice-cold 50 mM Tris-HCl buffer (pH 7.4) and diluted in 30 vol/wt of the same buffer. After centrifugation at 40 000g for 20 min at 4 °C, the pellets were resuspended in 30 vol/wt of 50 mM Tris-HCl buffer (pH 7.4) and incubated at 37 °C for 30 min. The centrifugation step described above was repeated, and the final pellets were resuspended in 5 vol/wt of 50 mM Tris-HCl buffer (pH 7.4) containing 0.32 M sucrose and stored at −80 °C until use.
as §5, §4

[6] = target: T5, DOR (Rattus norvegicus, UniProt P33533); assay: competition radioligand binding, rat brain membranes, [3H][Ile5,6]deltorphin II; conditions: rat brain membranes; read-out: opioid receptor binding Ki DOR
T5 construct: Membranes were prepared from Sprague-Dawley rat brains or guinea-pig brains according to the described procedures; tissue Labortierkunde und Laborgenetik, Medizinische Universität Wien; host or cells: Sprague-Dawley rat brain without cerebella
Description: as §8, §9, §5, §4

[7] = target: T1, MOR; assay: competition radioligand binding, CHO cell membranes expressing human MOR, [3H]DAMGO
Description: as §2, §5, §6, §7

[8] = tested on: male CD1 mice; assay: acetic acid-induced writhing assay after sc administration; type: in vivo, mouse; conditions: for ED50: Mus musculus, 0.5 h, read-out: ED50 (95% CI), mice, sc, inhibition of writhing 30 min after drug administration; for ED50 (95% CI): mice, inhibition of writhing 30 min after drug administration; for increased antinociceptive potency vs comparator: writhing assay, 3a vs 3b, 4a vs 4b, 16b vs 7a (so in the source)
Description: Solutions of test compounds were prepared in sterile physiological 0.9% saline and further diluted to working doses in saline solution. Test compounds or saline (control) were administered by sc route in a volume of 10 μL/1 g of body weight. All doses are expressed in terms of salts. Separate groups of mice received the respective dose of compound, and individual mice were only used once for behavioral testing.
Writhing was induced in male CD1 mice by ip injection of a 0.6% acetic acid aqueous solution as described previously.[48],[62] Groups of mice were administered sc different doses of test compound or saline (control), and 5 min prior to testing (25 min after drug or saline), each animal received an ip injection of acetic acid solution. Each mouse was placed in individual transparent Plexiglas chambers, and the number of writhes was counted during a 10 min observation period. […] For the antagonism study, naloxone methiodide was sc co-administered with the respective opioid agonist, and writhing was assessed as described above.
as §4

[9] = target: T6, MOR (Rattus norvegicus, UniProt P33535); assay: competition radioligand binding, rat brain membranes, [3H]DAMGO; conditions: for Ki: rat brain membranes, read-out: opioid receptor binding Ki MOR; for Ki ratio MOR/DOR/KOR: from Ki in rat (MOR, DOR) and guinea-pig (KOR) brain membranes
T6 construct: Membranes were prepared from Sprague-Dawley rat brains or guinea-pig brains according to the described procedures; tissue Labortierkunde und Laborgenetik, Medizinische Universität Wien; host or cells: Sprague-Dawley rat brain without cerebella
Description: as §8, §9, §5, §4

[10] = relative to reference full agonist DAMGO
[11] = [35S]GTPγS, CHO human MOR membranes, read-out: MOR EC50

Row | Compound | Emax [1, 10] | EC50 [2] | Emax [2] | EC50 [3] | Emax [3] | Ki [4] | Ki [5] | Ki [6] | functional profile at KOR (full/partial agonist) [3] | EC50 [1, 11] | ED50 [8] | increased antinociceptive potency vs comparator [8] | Ki [9] | also measured
1 | CO[C@@]12CC[C@H](NC(C)C(=O)O)[C@@H]3Oc4c(O)ccc5c4[C@@]31CCN(C)[C@@H]2C5 (stereo in doubt) [Compound 15a, (2S)-2-[(4,5α-Epoxy-3-hydroxy-14β-methoxy-17-methylmorphinan-6α-yl)amino]propanoic Acid Dihydrochloride] | 100 ± 8% | 24.3 ± 5.3 nM | 106 ± 7% | 254 ± 118 nM | 67 ± 13% | 14.9 ± 1.9 nM | 71.5 ± 9.6 nM | 10.4 ± 0.01 nM | – | – | – | – | – | –
2 | CO[C@@]12CC[C@@H](NC(C)C(=O)O)[C@@H]3Oc4c(O)ccc5c4[C@@]31CCN(C)[C@@H]2C5 (stereo in doubt) [Compound 15b, (2S)-2-[(4,5α-Epoxy-3-hydroxy-14β-methoxy-17-methylmorphinan-6β-yl)amino]propanoic Acid Dihydrochloride] | 102 ± 9% | 5.46 ± 2.68 nM | 106 ± 6% | 1000 ± 192 nM | 86 ± 2% | 11.5 ± 2.6 nM | 142 ± 33 nM | 11.3 ± 0.9 nM | full agonists | – | – | – | – | increased agonist potency at DOR vs MOR ([2]; [35S]GTPγS EC50): 2–4 times
3 | CO[C@@]12CC[C@H](NCC(=O)O)[C@@H]3Oc4c(O)ccc5c4[C@@]31CCN(C)[C@@H]2C5 [Compound 2a] | 99 ± 4% | – | – | 399 ± 119 nM | 87 ± 4% | 18.2 ± 6.1 nM | – | – | full agonists | 1.16 ± 0.59 nM | 0.0357 mg/kg | – | – | Ki [7]: 0.79 ± 0.08 nM
4 | CO[C@@]12CC[C@H](N[C@@H](C)C(=O)O)[C@@H]3Oc4c(O)ccc5c4[C@@]31CCN(C)[C@@H]2C5 [Compound 3a] | 97 ± 5% | 9.55 ± 4.47 nM | 93 ± 9% | 214 ± 71 nM | 51 ± 3% | 26 ± 3.5 nM | – | – | – | – | < 0.02 mg/kg | 5 times | – | ED50 (95% CI) [8]: 16.0 (5.45–47.0) μg/kg
5 | CO[C@@]12CC[C@@H](N[C@@H](C)C(=O)O)[C@@H]3Oc4c(O)ccc5c4[C@@]31CCN(C)[C@@H]2C5 [Compound 3b] | 87 ± 6% | 5.2 ± 1.7 nM | 104 ± 6% | 392 ± 160 nM | 64 ± 9% | 8.43 ± 2.1 nM | – | – | partial agonist | – | 0.0863 mg/kg | – | – | –
6 | CO[C@@]12CC[C@H](N[C@@H](Cc3ccccc3)C(=O)O)[C@@H]3Oc4c(O)ccc5c4[C@@]31CCN(C)[C@@H]2C5 [Compound 4a] | 93 ± 8% | 0.39 ± 0.19 nM | 102 ± 2% | 219 ± 2 nM | 39 ± 12% | 3.61 ± 1.2 nM | – | – | partial agonist | 0.38 ± 0.19 nM | 0.0311 mg/kg | 19 times | – | EC50 [1]: < 1 nM; Ki [7]: 0.81 ± 0.2 nM
7 | CO[C@@]12CC[C@@H](N[C@@H](C(=O)O)C(C)C)[C@@H]3Oc4c(O)ccc5c4[C@@]31CCN(C)[C@@H]2C5 [Compound 16b] | 101% | 1.3 ± 0.64 nM | 99 ± 0.2% | 1280 ± 283 nM | 98 ± 16% | – | 159 ± 17 nM | 1.68 ± 0.16 nM | full agonists | 2.38 ± 0.77 nM | < 0.02 mg/kg | 8 times | 1.02 ± 0.07 nM | increase in MOR binding affinity vs comparator ([9]; rat brain, 17b vs 4b, 16a/b vs 7a/b, 22a/b vs 7a, 7b and 9b, 14a vs 14b): 2–3 times; functional profile at MOR (full/partial agonist) ([1]; full agonist ≥85% of the response to DAMGO): full agonist; MOR % stim. [1, 10]: 101 ± 5%; ED50 (95% CI) [8]: 14.0 (5.90–33.3) μg/kg
8 | CO[C@@]12CC[C@H](NCCC(=O)O)[C@@H]3Oc4c(O)ccc5c4[C@@]31CCN(C)[C@@H]2C5 [Compound 20a, 3-[(4,5α-Epoxy-3-hydroxy-14β-methoxy-17-methylmorphinan-6α-yl)amino]propionic Acid Dihydrochloride] | 99 ± 7% | 96.4 ± 8.7 nM | 97 ± 2% | 186 ± 15 nM | 78 ± 9% | – | 182 ± 8 nM | 60 ± 1.9 nM | – | 3.52 ± 1.65 nM | 0.0312 mg/kg | – | 1.3 ± 0.08 nM | Ki ratio MOR/DOR/KOR [9]: 1/46/140
9 | CO[C@@]12CC[C@H](NCCCC(=O)O)[C@@H]3Oc4c(O)ccc5c4[C@@]31CCN(C)[C@@H]2C5 [Compound 21a] | 103 ± 4% | 34.4 ± 6.5 nM | 103 ± 1% | 2030 ± 253 nM | 104 ± 9% | – | 45.6 ± 4.4 nM | 12.5 ± 0.7 nM | – | 2.88 ± 0.82 nM | 0.0419 mg/kg | – | 0.77 ± 0.07 nM | Ki ratio MOR/DOR/KOR [9]: 1/16/59
